Structures can show the parent of a compound that is named as a salt.
Key:
PI3Kα = PI3Kα (Homo sapiens (Human), UniProt P42336); assay: PI3Kα enzymatic assay; type: biochemical; details: read-out: In vitro enzymatic activity (IC50) PI3Kα
Protocol: (§1) Assay 1-2: In Vitro Enzymatic Inhibitory Activity of the Present Compound
(§2) • 1.1 1-fold kinase buffer: 50 mM HEPES, pH 7.5, 10 mM MgCl2, 1 mM EGTA, 3 mM MnCl2, 0.01% Tween-20, 2 mM DTT; • 1.2 4-fold kinase solution: mTOR kinase was added to 1-fold kinase buffer to form 4-fold kinase solution with a final concentration of 2.5 nM; • 1.3 2-fold substrate and ATP solution: the substrate 4EBP1 and ATP were added to 1-fold kinase buffer to form 2-fold substrate solution with final concentration of 50 nM of 4EBP1 and 10.8 μM of ATP; • 1.4 4-fold test substance solutions: 100-fold test substance solutions in different gradient concentrations were formulated with 100% DMSO, and diluted by 25 folds with 1-fold kinase buffer to form 4-fold test substance solutions in different gradient concentrations. • 1.5 Preparation of detection solution: a detection solution containing 2-fold final concentrations of EDTA and 4EBP1 phosphorylated antibody was formulated, wherein the final concentration for EDTA was 8 mM, and the final concentration for the 4EBP phosphorylated antibody was 2 nM. 2. Procedure • 2.1 To each well of a 384-well plate was added 2.5 μL of the 4-fold test substance solutions in gradient concentrations. The replication was made. • 2.2 To each well was added 2.5 μL of 4-fold kinase solution, and then the plate was incubated for 10 mins; • 2.3 Then to each well was added 5 μL/of 2-fold substrate and ATP solution, and then the plate was incubated at room temperature for 1 hour; • 2.4 Finally, 10 μL of the detection solution was added to terminate the reaction. After 60 mins, the data Lance signal ([…]) was read from Envision. 3 Data treatment Inhibition rate (%)=[…] • wherein: • maximum refers to the reading at the DMSO control well. • minimum refers to the reading at the control well without kinase, • The data was input into Graphpad Prism 5.0 to plot and obtain the curve and IC50 value. PI3Kα Enzymatic Assay 1. […] After 15 mins, the data Lance signal ([…]) was read from Envision. 3 Data treatment Inhibition rate (%)=100−(sample value−minimum)/(maximum−minimum)×100 • wherein: • maximum refers to the reading at the control well without kinase, • minimum refers to the reading at the DMSO control well, • The data was input into Graphpad Prism 5.0 to plot and obtain the curve and IC50 value. […]

mTOR = mTOR (Homo sapiens (Human), UniProt P42345); assay: mTOR enzymatic assay; type: biochemical; details: read-out: In vitro enzymatic activity (IC50) mTOR
Protocol: as §1
1. Preparation of Agents:
as §2

PC-3 = assay: In vitro cytological inhibitory activity (XTT); type: cell-based; details: Homo sapiens, 72 hrs
Protocol: PC-3: Human prostatic carcinoma cell line;
(§3) 1. Preparation of agents and compounds:
(§4) • 1.1 Preparation of phosphoric acid buffering solution (PBS): 8 g NaCl, 0.2 g KCl, 1.44 g Na2HPO4 and 0.24 g KH2PO4 were weighed and added to 800 mL ultrapure water. The mixture was adjusted to pH=7.4, and ultrapure water was added to the metered volume of IL. Then the autoclaving was conducted for 20 mins. • 1.2 Preparation of XTT detection working solution: 100 mg (2,3-Bis-(2-methoxy-4-nitro-5-sulfophenyl)-2H-tetrazolium-5-carboxanilide); 2,3-bis(2-methoxy-4-nitro-5-sulfophenyl)-5-[(phenylamino)carbonyl]-2H-tetrazolium hydroxide (XTT) powder was weighed, and dissolved under protection from light 300 mL of phenol red-free and serum-free RPMI1640 culture, which had been warmed up to 50° C. The resulting mixture was filtered, packaged and used immediately or in one week. The complete process was conducted under protection from light. • 1.3 Preparation of the test compound • Preparation of the stock solution of the test compound: The test compound powder was dissolved in DMSO in a concentration of 10 mM. • Preparation of the gradiently diluted solution of the test compound: 10 mM of the stock solution of the test compound was successively and gradiently diluted with DMSO by 4 folds for 10 concentrations. […]

[1] = In vivo pharmacokinetics assay in rat; details: male, SD, plasma, rats; for Vd: read-out: Vss
Source text: Test animals: male SD rats, weighing 190-260 g. Intravenous bolus injection (I.V.) and gavage (P.O.) administrations were each applied to three rats.
Compound 5, for both I.V and P.O administrations, was solubilized with a solution of 30% DMF+50% PEG400+20%(0.9% sodium chloride injection)(the pH being adjusted with a suitable amount of an aqueous hydrochloric acid solution (2 mol/L)).
Compound 6, for both I.V and P.O administrations, was solubilized with a solution of 30% DMF+30% PEG400+5%0.1 mol/lhydrochloric acid+[…] normal saline.
Compound 30 for I.V administration was solubilized with a solution of 30% DMF+50% PEG400+20% normal saline; Compound 30 for P.O administration was solubilized with a solution of 5% DMSO+30% polyoxyethylene castor oil+65% normal saline.
Compound 30 hydrochloride for I.V administration was solubilized with a solution of 30% DMF+50% PEG400+20% sterile water for injection.
I.V blood sampling time point: 0.083 h, 0.25 h, 0.5 h, 1 h, 2 h, 4 h, 6 h, 8 h and 24 h after the administration, P.O blood sampling time point: 0.17 h, 0.5 h, 1 h, 2 h, 4 h, 6 h, 8 h and 24 h after the administration.
About 100 μl of whole blood was taken at each time point, anticoagulated with heparin sodium, and centrifugated at 8,000 rpm in a high-speed centrifuge for 6 minutes to separate plasma, and the resulting plasma was frozen at −80° C. in a refrigerator.
The plasma sample was treated with a liquid-liquid extraction. 20 μL of plasma was taken. A solution of BEZ-235 (Novartis, Phase II) in tertbutylmethylether (600 μL, 10 ng/mL) was added as internal standard. The mixture was rotated vertically at 1500 rpm for 10 mins and then centrifugated at 12000 rpm for 5 mins. 400 μL of the supernate was taken and dried under nitrogen. The dried substance was redissolved in 200 μL methanol:water (7:3, V/V) for LC-MS/MS analysis.
Calculation Absolute bioavailability F%=[AUC]last (P.O)*Dose(I.V)/[AUC]last (I.V)*Dose(P.O)

A549 = assay: In vitro cytological inhibitory activity (XTT); type: cell-based; details: Homo sapiens, 72 hrs
Protocol: A549: Human lung cancer cell line;
as §3, §4

U87MG = assay: In vitro cytological inhibitory activity (XTT); type: cell-based; details: Homo sapiens, U-87 MG, 72 hrs
Protocol: U87MG: Human brain astrocytoblast cell line;
as §3, §4

SKOV-3 = assay: In vitro cytological inhibitory activity (XTT); type: cell-based; details: Homo sapiens, SK-OV-3, 72 hrs
Protocol: SKOV-3: Human ovarian cancer cell line;
as §3, §4

Sequence of PI3Kα (P42336 whole entry): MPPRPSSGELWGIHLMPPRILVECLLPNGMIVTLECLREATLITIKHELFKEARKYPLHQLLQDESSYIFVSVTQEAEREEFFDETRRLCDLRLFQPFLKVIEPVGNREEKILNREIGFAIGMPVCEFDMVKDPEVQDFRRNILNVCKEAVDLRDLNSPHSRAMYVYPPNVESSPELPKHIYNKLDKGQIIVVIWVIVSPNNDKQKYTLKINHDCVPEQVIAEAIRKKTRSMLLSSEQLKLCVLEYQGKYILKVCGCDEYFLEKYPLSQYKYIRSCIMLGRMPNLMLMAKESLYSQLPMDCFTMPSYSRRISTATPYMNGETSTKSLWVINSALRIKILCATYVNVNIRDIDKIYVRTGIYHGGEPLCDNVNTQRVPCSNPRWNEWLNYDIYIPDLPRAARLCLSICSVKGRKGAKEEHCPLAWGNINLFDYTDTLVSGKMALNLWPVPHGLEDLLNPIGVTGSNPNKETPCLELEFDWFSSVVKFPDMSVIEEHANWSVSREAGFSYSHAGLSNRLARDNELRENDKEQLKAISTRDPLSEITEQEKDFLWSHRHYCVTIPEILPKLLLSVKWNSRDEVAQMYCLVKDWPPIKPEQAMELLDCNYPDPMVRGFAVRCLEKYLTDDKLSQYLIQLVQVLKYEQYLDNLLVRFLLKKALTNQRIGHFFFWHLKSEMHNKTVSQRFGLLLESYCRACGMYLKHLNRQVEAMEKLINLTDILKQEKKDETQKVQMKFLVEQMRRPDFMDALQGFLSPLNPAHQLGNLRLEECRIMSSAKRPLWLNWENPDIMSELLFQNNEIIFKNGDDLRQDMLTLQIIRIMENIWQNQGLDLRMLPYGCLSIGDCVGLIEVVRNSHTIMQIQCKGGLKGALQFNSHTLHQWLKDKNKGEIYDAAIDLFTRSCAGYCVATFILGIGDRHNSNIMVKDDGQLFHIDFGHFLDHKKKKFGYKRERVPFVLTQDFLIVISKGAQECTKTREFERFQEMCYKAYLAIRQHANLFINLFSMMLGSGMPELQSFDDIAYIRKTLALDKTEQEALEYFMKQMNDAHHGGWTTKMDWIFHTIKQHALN
Sequence of PI3Kα (P27986 whole entry partner): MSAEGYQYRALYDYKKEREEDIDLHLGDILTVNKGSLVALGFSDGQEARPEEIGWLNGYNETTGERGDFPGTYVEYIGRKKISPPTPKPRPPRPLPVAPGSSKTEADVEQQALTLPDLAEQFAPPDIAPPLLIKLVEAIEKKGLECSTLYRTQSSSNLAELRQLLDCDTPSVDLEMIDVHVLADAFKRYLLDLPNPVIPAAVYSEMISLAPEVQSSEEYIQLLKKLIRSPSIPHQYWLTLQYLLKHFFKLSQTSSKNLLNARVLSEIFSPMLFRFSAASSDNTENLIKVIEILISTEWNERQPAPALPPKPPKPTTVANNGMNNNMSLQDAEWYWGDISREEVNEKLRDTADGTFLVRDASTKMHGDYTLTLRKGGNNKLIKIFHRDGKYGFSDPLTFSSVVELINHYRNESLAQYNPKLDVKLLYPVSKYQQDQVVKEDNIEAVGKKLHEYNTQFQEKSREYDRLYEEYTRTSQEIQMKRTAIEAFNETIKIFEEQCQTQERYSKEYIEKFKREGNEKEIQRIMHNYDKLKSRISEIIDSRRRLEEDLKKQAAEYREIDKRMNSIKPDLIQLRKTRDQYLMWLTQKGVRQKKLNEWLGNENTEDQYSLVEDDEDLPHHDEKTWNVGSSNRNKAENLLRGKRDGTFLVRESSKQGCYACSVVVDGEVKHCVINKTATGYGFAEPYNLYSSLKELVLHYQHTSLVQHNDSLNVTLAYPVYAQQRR

| Structure (SMILES) | IC50 (PI3Kα) | IC50 (mTOR) | AUC(0-inf) ([1]; intravenous, I.V, 2 mg/kg) | AUC(0-t) ([1]; intravenous, I.V, 2 mg/kg) | clearance ([1]; intravenous, I.V, 2 mg/kg) | half-life ([1]; intravenous, I.V, 2 mg/kg) | Vd ([1]; intravenous, I.V, 2 mg/kg) | other results |
| --- | --- | --- | --- | --- | --- | --- | --- | --- |
| COc1ncc(-c2ccc3ncc4c(=O)[nH]c(=O)n(-c5cccc(C(F)(F)F)c5)c4c3n2)cn1 [Compound 17, 9-(2-methoxypyrimidin-5-yl)-1-(3-(trifluoromethyl)phenyl)pyrimido[5,4-c][1,5]naphthyridine-2,4(1H,3H)-dione] | 40.7 nM | 39.3 nM |  |  |  |  |  |  |
| Nc1ncc(-c2ccc3ncc4c(=O)[nH]c(=O)n(-c5cccc(C(F)(F)F)c5)c4c3n2)cn1 [Compound 20, 9-(2-aminopyrimidin-5-yl)-1-(3-(trifluoromethyl)phenyl)pyrimido[5,4-c][1,5]naphthyridine-2,4(1H,3H)-dione] | 15.2 nM | 2.66 nM |  |  |  |  |  |  |
| O=c1[nH]c(=O)n(-c2cccc(C(F)(F)F)c2)c2c1cnc1ccc(-c3cnc4[nH]ccc4c3)nc12 [Compound 30 hydrochloride] |  |  | 1690 ng·h/mL | 1680 ng·h/mL | 19.7 mL/min/kg | 182 min | 2.49 L/kg |  |

Second part, led by results:

| IC50 (PI3Kα) | IC50 (mTOR) | AUC(0-inf) ([1]; intravenous, I.V, 2 mg/kg) | AUC(0-t) ([1]; intravenous, I.V, 2 mg/kg) | clearance ([1]; intravenous, I.V, 2 mg/kg) | half-life ([1]; intravenous, I.V, 2 mg/kg) | Vd ([1]; intravenous, I.V, 2 mg/kg) | Structure (SMILES) | other results |
| --- | --- | --- | --- | --- | --- | --- | --- | --- |
| 79 nM | 57 nM |  |  |  |  |  | COc1ccc(-c2ccc3ncc4c(=O)[nH]c(=O)n(-c5cccc(C(F)(F)F)c5)c4c3n2)cn1 [Compound 2, 9-(6-methoxypyridin-3-yl)-1-(3-(trifluoromethyl)phenyl)pyrimido[5,4-c][1,5]naphthyridine-2,4(1H,3H)-dione] |  |
|  |  | 4470 ng·h/mL | 4450 ng·h/mL | 7.67 mL/min/kg | 189 min | 1.95 L/kg | Cn1c(=O)c2cnc3ccc(-c4ccc(N)nc4)nc3c2n(-c2cccc(C(F)(F)F)c2)c1=O [Compound 6] | IC50 (PC-3): 35.8 nM; bioavailability ([1]; oral, P.O 4 mg/kg vs I.V 2 mg/kg, read-out: F % (absolute bioavailability)): 115%; AUC(0-inf) ([1]; oral, P.O, 4 mg/kg): 10300 ng·h/mL; AUC(0-t) ([1]; oral, P.O, 4 mg/kg): 10200 ng·h/mL; Cmax ([1]; oral, P.O, 4 mg/kg): 1120 ng/mL; Tmax ([1]; oral, P.O, 4 mg/kg): 2 h; half-life ([1]; oral, P.O, 4 mg/kg): 235 min; IC50 (A549): 89.5 nM; IC50 (U87MG): 37.6 nM; IC50 (SKOV-3): 63.1 nM |
